# Measurements taken from patent US20260200982A1, “HER RECEPTOR DERIVED PEPTIDES AND METHODS OF USE THEREOF” (Ramot at Tel-Aviv University Ltd., priority 2022, published 2026).
# The star is where a group is joined. Myristoyl = CCCCCCCCCCCCCC(=O)*
# Tests used:
# Panc-1 cells = test: Colony formation assay, Panc-1; assay type: cell-based, human; details: 8 μM, 72 hours, FIG. 8
# Protocol: Colony formation assay—Cells were plated onto 12-well plate (6×10^4 cells/well) and treated with either PBS or myr-NLS at the IC50 concentration for 3 days. Cells were collected and replated in 10-cm plates (at 3 dilutions of 1:10, 1:20 and 1:40). After 7-14 days when visible and yet separated colonies were formed, the cells were fixed with 0.1% acetic acid in PBS, and stained with 0.4% crystal violet in 0.1% acetic acid. Total colonies area was calculated using the ImageJ program.
# In order to test the effect of myr-NLS on cell tumorigenicity, a colony formation assay was performed. To this end, Panc-1 and MIA PaCa-2 cells were treated or untreated for 72 hours with IC50 dose of myr-NLS (SEQ ID NO: 5, 8 μM and 4.5 μM respectively). Cells were then seeded at the same dilutions in new plates until colonies were formed.
# Akt = test: Western blot analysis of dissected Panc-1 tumors, Akt; assay type: in vivo, human; details: Panc-1 tumor lysates; FIGS. 10A-C
# Protocol: Pancreatic Tumor Growth in Nude Mice—The study was conducted according to the NIH Guidelines for Use and Care of Laboratory Animals and following the approval by Animal Care Committee of the Tel Aviv University. Nude CD1-Nu mice (25-30 g) housed in barrier facilities on a 12-h light/dark cycle one week prior to the injection of tumor cells (day zero). On day zero, 2×10^6 Panc 1 cells in 0.1 ml of PBS were implanted subcutaneously just above the right femoral joint. Tumor size was measured every 3-4 days. When the tumors were apparently seen and the calculated tumor size was 40 mm^3, the animals were divided randomly into two groups of mice (control vehicle treated and myr-NLS (SEQ ID NO: 5) treated; 8 mice per group). Treatment with the myr-NLS (SEQ ID NO: 5) was performed by intraperitoneal injection of 25 μg in 100 μl PBS (or 100 μl PBS for control mice) every day. Tumors size was measured 3 times a week. At the end of the experiment, the mice were sacrificed, and the tumors were dissected and used for further analysis.
# Western blot analysis—Half of each tumor was homogenized in lysis buffer, using a Potter-Elvehjem manual homogenizer, cleared and kept at −70° C. […] Immunoreactive bands were detected with the enhanced chemiluminescence reagent (Luminata Crescendo Western HRP). Densitometric quantification analysis of the resulted images was done using ImageJ program. […]
# nucleolin = nucleolin (Homo sapiens, UniProt P19338); test: Immunoblotting of cell lysates, nucleolin level; assay type: cell-based; design: endogenous in cells; host or cells: DLD-1, Panc-1; details: DLD-1 or Panc-1 cells; 24 hours; 25 μM and 10 μM; FIGS. 13A-B
# Protocol: Lysate preparation and immunoblotting—Cells were seeded at cell densities of 1.5×10^5 (DLD-1), 1.8×10^5 (HCT-116) and 2.5×10^5 (SKBR3) cells/well, treated as indicated and grown for 24 hours. Following, cells were lysed in solubilization buffer; the lysates were cleared by centrifugation and a boiling gel sample buffer was added. Proteins were resolved by SDS-polyacrylamide gel electrophoresis through 10% polyacrylamide gels, and were electrophoretically transferred to nitrocellulose membranes. Membranes were blocked in TBST buffer containing 6% milk, and blotted with primary antibodies. Following, a secondary antibody linked to horseradish peroxidase was added. Immunoreactive bands were detected with the enhanced chemiluminescence reagent Immobilon Crescendo Western HRP substrate (WBLUR0100; Merck Millipore).
# Chain of nucleolin (P19338 whole entry): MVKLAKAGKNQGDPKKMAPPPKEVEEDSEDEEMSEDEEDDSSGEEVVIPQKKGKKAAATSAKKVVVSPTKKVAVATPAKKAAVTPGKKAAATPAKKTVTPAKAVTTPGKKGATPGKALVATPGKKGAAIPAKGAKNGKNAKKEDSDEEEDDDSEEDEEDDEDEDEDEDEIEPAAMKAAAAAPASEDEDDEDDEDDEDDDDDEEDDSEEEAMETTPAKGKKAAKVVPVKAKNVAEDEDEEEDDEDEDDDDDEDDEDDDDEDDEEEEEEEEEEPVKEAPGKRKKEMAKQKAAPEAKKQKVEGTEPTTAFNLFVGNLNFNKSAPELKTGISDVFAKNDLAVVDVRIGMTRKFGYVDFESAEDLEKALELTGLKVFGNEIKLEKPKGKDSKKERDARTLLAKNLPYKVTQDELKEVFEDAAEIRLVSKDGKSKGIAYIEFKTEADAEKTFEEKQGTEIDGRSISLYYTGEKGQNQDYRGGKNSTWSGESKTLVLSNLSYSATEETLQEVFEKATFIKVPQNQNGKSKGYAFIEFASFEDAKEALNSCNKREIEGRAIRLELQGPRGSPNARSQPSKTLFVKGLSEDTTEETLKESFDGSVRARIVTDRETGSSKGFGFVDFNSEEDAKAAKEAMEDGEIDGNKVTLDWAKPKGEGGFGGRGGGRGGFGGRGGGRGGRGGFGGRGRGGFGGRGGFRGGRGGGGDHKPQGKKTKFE
substance,measurement,setting,value
Myr-RRRHIVRKRTLRRLL-OH (Myristoyl-RRRHIVRKRTLRRLL-OH; SMILES CCCCCCCCCCCCCC(=O)N[C@@H](CCCNC(=N)N)C(=O)N[C@@H](CCCNC(=N)N)C(=O)N[C@@H](CCCNC(=N)N)C(=O)N[C@@H](Cc1c[nH]cn1)C(=O)N[C@H](C(=O)N[C@H](C(=O)N[C@@H](CCCNC(=N)N)C(=O)N[C@@H](CCCCN)C(=O)N[C@@H](CCCNC(=N)N)C(=O)N[C@H](C(=O)N[C@@H](CC(C)C)C(=O)N[C@@H](CCCNC(=N)N)C(=O)N[C@@H](CCCNC(=N)N)C(=O)N[C@@H](CC(C)C)C(=O)N[C@@H](CC(C)C)C(=O)O)[C@@H](C)O)C(C)C)[C@@H](C)CC) [myr-NLS],colony formation (total colonies area),Panc-1 cells,fewer and smaller colonies
same,Akt levels in tumors,Akt,significant reduction
same,levels of expression of nucleolin,nucleolin,reduced the levels of expression
